Test results from patent US12018023B2 (NERVIANO MEDICAL SCIENCES S.R.L., priority 2018, dated 2024).
pIC50: −log10 of the molar value. Structures can show the parent of a compound that is named as a salt.

Tests used:
[1] = target: T1, IDH1^R132H homodimer enzyme (Homo sapiens, UniProt O75874, R132H); assay: NADPH depletion assay, IDH1 R132H; type: biochemical
T1 construct: purchased not specified
Method: (§1) IDH mutated enzyme activity converting alpha-ketoglutarate to 2-hydroxyglutaric acid is measured using a NADPH depletion assay. In the assay the remaining cofactor is measured at the end of the reaction with the addition of a catalytic excess of diaphorase and resazurin, to generate a fluorescent signal in proportion to the amount of NADPH remaining. IDH1 WT enzyme as well as mutated isoforms IDH1^R132H, IDH1^R132C, and IDH^2R172K enzymes are commercially available proteins (see e.g. Sino Biological, Abcam, Active Motif or Creative BioMart).
(§2) IDH1^R132H homodimer enzyme are diluted to 8 nM, in 10 μL of Assay Buffer (150 mM NaCl, 50 mM Tris-HCl pH 7.6, 10 mM MgCl2, 0.001% Triton X-100, 4 mM β-mercaptoethanol); 0.2 uL of test compound, previously serially diluted 1 to 3, >10 experimental points from 1 mM in DMSO, is added and the mixture is incubated for 15 minutes at room temperature. The reaction is started with the addition of 10 μL of Substrate Mix (12 uM NADPH, 3.4 mM alpha-ketoglutarate in Assay Buffer) and the mixture is incubated for 60 minutes at room temperature. The reaction is terminated with the addition of 5 μl of Detection Buffer (100 μg/mL diaphorase, 30 μM resazurin, in IX Assay Buffer), and is incubated for 15 minute before reading on a ViewLux as platereader at Ex544/Em590.

[2] = target: T2, IDH1^R132C (Homo sapiens, UniProt O75874, R132C); assay: NADPH depletion assay, IDH1 R132C; type: biochemical
T2 construct: purchased not specified
T2 sequence (O75874 whole entry R132C): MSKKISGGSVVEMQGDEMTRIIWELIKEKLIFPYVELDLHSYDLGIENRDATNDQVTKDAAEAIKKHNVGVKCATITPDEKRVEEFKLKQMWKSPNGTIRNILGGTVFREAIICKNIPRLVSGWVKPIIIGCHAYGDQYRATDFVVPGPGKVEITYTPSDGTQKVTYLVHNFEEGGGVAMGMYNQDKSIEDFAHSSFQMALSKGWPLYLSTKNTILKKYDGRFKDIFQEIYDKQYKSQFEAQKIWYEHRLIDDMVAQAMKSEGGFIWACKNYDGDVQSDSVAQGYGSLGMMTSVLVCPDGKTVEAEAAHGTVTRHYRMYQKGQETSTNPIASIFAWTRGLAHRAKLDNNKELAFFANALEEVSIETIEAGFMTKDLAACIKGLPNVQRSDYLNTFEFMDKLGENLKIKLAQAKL
Method: as §1, §2
Compounds are assayed for their activity against IDH1^R132C following the same assay as above with the following modifications: IDH1^R132C and alpha-ketoglutarate final concentrations in the Assay Buffer is 2 nM and 0.14 mM, respectively.

T1 sequence (O75874 whole entry R132H): as the sequence (O75874 whole entry R132C) above, with C132H counted along it

pIC50 [1]	pIC50 [2]	Structure (SMILES)
6.80	7.15	C[C@H](Nc1ncc2ccc(=O)n(CC(C)(C)C)c2n1)c1ccccc1 [cpd 40, 8-(2,2-dimethylpropyl)-2-{[(1S)-1-phenylethyl]amino}pyrido[2,3-d]pyrimidin-7(8H)-one]
6.32	6.75	CC[C@H](Nc1ncc2ccc(=O)n(CC(C)(C)C)c2n1)c1ccccc1 [cpd 70, 8-(2,2-dimethylpropyl)-2-{[(1S)-1-phenylpropyl]amino}pyrido[2,3-d]pyrimidin-7(8H)-one]
6.65	7.39	C[C@H](Nc1ncc2ccc(=O)n(CC(C)(C)C)c2n1)c1ccc(CN2CCOCC2)cc1F [cpd 153, 8-(2,2-dimethylpropyl)-2-({(1S)-1-[2-fluoro-4-(morpholin-4-ylmethyl)phenyl]ethyl}amino)pyrido[2,3-d]-pyrimidin-7(8H)-one]
5.60	6.23	COc1ccc(Cn2c(=O)ccc3cnc(N[C@@H](C)c4ccc(Cl)cc4)nc32)cc1 [cpd 21, 2-{[(1S)-1-(4-chlorophenyl)ethyl]amino}-8-(4-methoxybenzyl)pyrido[2,3-d]pyrimidin-7(8H)-one]
5.82	6.22	COC(=O)c1ccc([C@H](C)Nc2ncc3ccc(=O)n(C(C)C)c3n2)cc1 [cpd 9, methyl 4-[(1S)-1-{[7-oxo-8-(propan-2-yl)-pyrido[2,3-d]pyrimidin-2-yl]amino}ethyl]benzoate]
5.63	6.39	CC(C)[C@H](C)n1c(=O)ccc2cnc(N[C@@H](C)c3ccc(-c4ccnc(F)c4)cn3)nc21 [cpd 197, 2-{[(1S)-1-(2′-fluoro-3,4′-bipyridin-6-yl)ethyl]amino}-8-[(2S)-3-methylbutan-2-yl]pyrido[2,3-d]pyrimidin-7(8H)-one]
5.78	5.98	CC(C)(C)Cn1c(=O)ccc2cnc(NC3(c4ccccc4)CCC3)nc21 [cpd 43, 8-(2,2-dimethylpropyl)-2-[(1-phenylcyclobutyl)amino]pyrido[2,3-d]pyrimidin-7(8H)-one]
6.12	6.39	C[C@@H]1CN(Cc2ccc([C@H](C)Nc3ncc4ccc(=O)n([C@@H](C)C(F)(F)F)c4n3)cc2)C[C@H](C)O1 [cpd 164, 2-{[(1S)-1-(4-{[(2R,6S)-2,6-dimethylmorpholin-4-yl]methyl}phenyl)ethyl]amino}-8-[(2S)-1,1,1-trifluoropropan-2-yl]pyrido[2,3-d]pyrimidin-7(8H)-one]
6.34	6.83	CC(C)[C@H](C)n1c(=O)ccc2cnc(N[C@@H](C)c3ccc(OC4CCNCC4)cc3)nc21 [cpd 155, 8-((S)-1,2-Dimethyl-propyl)-2-{(S)-1-[4-(piperidin-4-yloxy)-phenyl]-ethylamino}-8H-pyrido[2,3-d]pyrimidin-7-one]
5.75	5.84	C[C@H](Nc1ncc2ccc(=O)n(CC(C)(C)C)c2n1)c1ccc(C(=O)NC2CC(F)(F)C2)cc1 [cpd 85, N-(3,3-difluorocyclobutyl)-4-[(1S)-1-{[8-(2,2-dimethylpropyl)-7-oxo-pyrido[2,3-d]pyrimidin-2-yl]amino}ethyl]benzamide]
6.02	6.85	CC(C)[C@H](C)n1c(=O)ccc2cnc(N[C@@H](C)c3ccc(-c4ccnc(C(F)(F)F)c4)cn3)nc21 [cpd 196, 8-[(2S)-3-methylbutan-2-yl]-2-({(1S)-1-[2′-(trifluoromethyl)-3,4′-bipyridin-6-yl]ethyl}amino)pyrido[2,3-d]pyrimidin-7(8H)-one]
6.90	7.05	CC(C)[C@H](C)n1c(=O)ccc2cnc(N[C@@H](C)c3ccc(C4=CCN(C(=O)OC(C)(C)C)CC4)cn3)nc21 [cpd 193, tert-butyl 6-[(1S)-1-({8-[(2S)-3-methylbutan-2-yl]-7-oxo-7,8-dihydropyrido[2,3-d]pyrimidin-2-yl}amino)ethyl]-3′,6′-dihydro-3,4′-bipyridine-1′(2′H)-carboxylate]
6.28	6.45	C[C@H](Nc1ncc2ccc(=O)n(CC(C)(C)C)c2n1)c1ccc(C(=O)NC2CCC(F)(F)CC2)cc1 [cpd 79, N-(4,4-difluorocyclohexyl)-4-[(1S)-1-{[8-(2,2-dimethylpropyl)-7-oxo-pyrido[2,3-d]pyrimidin-2-yl]amino}ethyl]benzamide]
6.18	6.98	C=CC(=O)N1CCN(Cc2ccc([C@H](C)Nc3nc(NC)c4ccc(=O)n(CC(C)(C)C)c4n3)cc2)CC1 [cpd 202, 2-{[(1S)-1-{4-[(4-acryloylpiperazin-1-yl)methyl]phenyl}ethyl]amino}-8-(2,2-dimethylpropyl)-4-(methylamino) pyrido[2,3-d]pyrimidin-7(8H)-one]
6.01	6.40	CCN1CCN(c2ccc([C@H](C)Nc3ncc4ccc(=O)n([C@@H](C)C(C)C)c4n3)cc2)CC1 [cpd 177, 2-({(1S)-1-[4-(4-ethylpiperazin-1-yl)phenyl]ethyl}amino)-8-[(2S)-3-methylbutan-2-yl]pyrido[2,3-d]pyrimidin-7(8H)-one]
6.72	6.82	CC(Nc1ncc2ccc(=O)n(CC(C)(C)C)c2n1)c1ccc(C(=O)NC2CCC(F)(F)CC2)c(F)c1 (centres unmarked) [cpd 84, N-(4,4-difluorocyclohexyl)-4-(1-{[8-(2,2-dimethylpropyl)-7-oxo-pyrido[2,3-d]pyrimidin-2-yl]amino}ethyl)-2-fluorobenzamide]
6.55	6.77	C[C@H](Nc1ncc2ccc(=O)n(CC(C)(C)C)c2n1)c1ccc(-c2ccncc2)cc1 [cpd 131, 8-(2,2-dimethylpropyl)-2-({(1S)-1-[4-(pyridin-4-yl)phenyl]ethyl}amino)pyrido[2,3-d]pyrimidin-7(8H)-one]
6.23	6.74	CC(C)[C@H](C)n1c(=O)ccc2cnc(N[C@@H](C)c3ccc(C4=CCN(C(=O)C5CC5)CC4)cn3)nc21 [cpd 195, 2-({(1S)-1-[1′-(cyclopropylcarbonyl)-1′,2′,3′,6′-tetrahydro-3,4′-bipyridin-6-yl]ethyl}amino)-8-[(2S)-3-methylbutan-2-yl]pyrido[2,3-d]pyrimidin-7(8H)-one]
5.63	5.72	COCCn1c(=O)ccc2cnc(N[C@@H](C)c3ccc(CN4CCC(F)(F)CC4)cc3)nc21 [cpd 114, 2-{[(1S)-1-{4-[(4,4-difluoropiperidin-1-yl)methyl]phenyl}ethyl]amino}-8-(2-methoxyethyl)pyrido[2,3-d]pyrimidin-7(8H)-one]
5.65	6.11	C[C@H](Nc1ncc2ccc(=O)n(CC(C)(C)C)c2n1)c1ccc(CN2CCNCC2)cc1 [cpd 138, 8-(2,2-Dimethyl-propyl)-2-[(S)-1-(4-piperazin-1-ylmethyl-phenyl)-ethylamino]-8H-pyrido[2,3-d]pyrimidin-7-one hydrochloride]
5.75	6.10	C[C@H](Nc1ncc2ccc(=O)n(CC(C)(C)C)c2n1)c1nc(-c2ccc(Cl)cc2)no1 [cpd 52, 2-({(1S)-1-[3-(4-chlorophenyl)-1,2,4-oxadiazol-5-yl]ethyl}amino)-8-(2,2-dimethylpropyl)pyrido[2,3-d]pyrimidin-7(8H)-one]
6.14	6.34	C[C@H](Nc1ncc2ccc(=O)n(CC(F)(CF)CF)c2n1)c1ccc(CN2CCC(F)(F)CC2)cc1 [cpd 107, 8-[2,3-difluoro-2-(fluoromethyl)propyl]-2-{[(1S)-1-{4-[(4,4-difluoropiperidin-1-yl)methyl]phenyl)ethyl]amino) pyrido[2,3-d]pyrimidin-7(8H)-one]
